In US20020028809A1 (SUNTORY LIMITED, priority 1999, published 2002):
Where two headings read alike, the source gives them in different places.

Key:
[1] = target: T1, α1β1γδ subtype of nicotinic acetylcholine receptors (Rattus norvegicus, UniProt P18916+P25108+P25109+P25110); experiment: Binding assays at α1β1γδ subtype of nicotinic acetylcholine receptors ([3H]-α-bungarotoxin, rat muscle extract); settings: for remaining activity at 100 µM / remaining activity at 1000 µM: read-out: control % of [3H]-α-Bgt binding
T1 construct: Native receptor, no construct: "Triton X100 (2% w/v) was added
T1 sequence (P25108 21-457): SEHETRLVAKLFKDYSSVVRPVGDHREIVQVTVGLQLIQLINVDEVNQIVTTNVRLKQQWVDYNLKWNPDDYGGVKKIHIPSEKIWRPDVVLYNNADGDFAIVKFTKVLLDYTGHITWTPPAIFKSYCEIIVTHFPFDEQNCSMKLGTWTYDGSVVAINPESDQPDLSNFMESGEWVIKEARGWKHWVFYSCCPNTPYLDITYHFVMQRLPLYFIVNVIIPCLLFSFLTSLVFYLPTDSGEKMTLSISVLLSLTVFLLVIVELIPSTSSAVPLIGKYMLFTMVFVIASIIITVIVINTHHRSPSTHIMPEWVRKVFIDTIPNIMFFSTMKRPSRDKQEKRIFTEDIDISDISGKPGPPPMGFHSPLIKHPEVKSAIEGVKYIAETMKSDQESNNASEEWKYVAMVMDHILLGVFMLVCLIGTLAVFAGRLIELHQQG
T1 sequence (P25110 22-517): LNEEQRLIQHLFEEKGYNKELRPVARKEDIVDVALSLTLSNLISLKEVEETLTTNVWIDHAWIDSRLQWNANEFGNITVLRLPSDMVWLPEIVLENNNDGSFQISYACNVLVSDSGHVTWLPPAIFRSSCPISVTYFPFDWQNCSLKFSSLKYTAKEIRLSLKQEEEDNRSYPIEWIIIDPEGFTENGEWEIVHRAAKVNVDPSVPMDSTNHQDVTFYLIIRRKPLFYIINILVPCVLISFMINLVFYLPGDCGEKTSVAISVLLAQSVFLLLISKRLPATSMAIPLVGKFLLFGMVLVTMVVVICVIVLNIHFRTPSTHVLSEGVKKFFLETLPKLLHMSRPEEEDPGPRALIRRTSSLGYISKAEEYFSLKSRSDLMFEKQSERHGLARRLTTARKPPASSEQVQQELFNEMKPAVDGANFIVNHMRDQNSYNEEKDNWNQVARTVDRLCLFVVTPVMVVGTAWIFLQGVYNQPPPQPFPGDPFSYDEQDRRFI
T1 sequence (P25109 24-501): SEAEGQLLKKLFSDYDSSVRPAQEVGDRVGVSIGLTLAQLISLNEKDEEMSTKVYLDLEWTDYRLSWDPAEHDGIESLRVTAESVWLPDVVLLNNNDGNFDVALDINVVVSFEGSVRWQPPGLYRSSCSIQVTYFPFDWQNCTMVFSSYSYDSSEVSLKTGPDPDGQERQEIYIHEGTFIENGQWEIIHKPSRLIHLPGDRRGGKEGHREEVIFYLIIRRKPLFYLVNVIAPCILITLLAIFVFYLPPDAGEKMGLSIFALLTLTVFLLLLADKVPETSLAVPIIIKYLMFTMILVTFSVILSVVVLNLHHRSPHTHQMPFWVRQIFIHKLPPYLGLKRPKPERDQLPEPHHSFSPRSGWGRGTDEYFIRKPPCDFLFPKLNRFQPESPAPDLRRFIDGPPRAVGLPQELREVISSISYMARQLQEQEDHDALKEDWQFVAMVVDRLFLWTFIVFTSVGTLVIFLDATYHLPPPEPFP
Excerpt: (§1) Methods for evaluating binding capabilities of the compounds at nicotinic acetylcholine receptors are different by subtypes of receptors. Binding capabilities of the compounds at α4β2 nicotinic acetylcholine receptors are examined using rat brain membrane obtained from whole homogenized brain, and determining the inhibiting rate of the compounds against [^3H]-cytisine binding to said brain membrane. Furthermore, the binding capabilities of the compounds at α1β1γδ nicotinic acetylcholine receptors are examined using homogenized rat muscle, and determining the inhibiting rate of the compounds against [^3H]-α-bungarotoxin binding to said muscle homogenate.
Binding Assays at α1β1γδ Subtype of Nicotinic Acetylcholine Receptors
Affinity of the compounds of the present invention to α1βγδ subtype of nicotinic acetylcholine receptors was measured by the following method, which was modified method described by Garcha H. S., Thomas P., Spivak C.
(1) Preparation of Rat Skeletal Muscles Containing α1β1γδ Subtype of Nicotinic Acetylcholine Receptors
The substantially same animals described in the Biological Experiment 1 were used.
Isolation of α1β1γδ subtype of nicotinic acetylcholine receptors was performed as follow. That is, rat posterior skeletal muscles were isolated just after sacrificed by decapitation, washed with ice-cooled saline solution and then frozen at −80° C. with liquid nitrogen and stored till using. After thawing the frozen muscles, tissue was homogenized (40% w/v) with buffer solution [2.5 mM of sodium phosphate buffer (pH:7.2), 90 mM of NaCl, 2 mM of KCl, 1 mM of EDTA, 2 mM of benzamidine, 0.1 mM of benzethonium chloride, […], 0.01% of sodium azide] in Waring blender (Waring blender 34BL97; WARING PRODUCTS DIVISION DYNAMICS CORPORATION OF AMERICA) for 60 seconds. The homogenate were centrifuged under 20,000×G for 60 minutes at 4° C. The supernatant was separated and the resulting pellet was added to the same buffer (1.5 ml/g wet weight), and homogenized under the same conditions. Triton X100 (2% w/v) was added and the mixture was stirred for 3 hours at 4° C. The centrifugation at 100,000×G for 60 minutes at 4° C. yielded the rat muscle extract as supernatant. This was stored at 4° C. for up to 4 weeks, and used for binding assays at receptors.
(2) Experiments of α1β1γδSubtype of Nicotinic Acetylcholine Receptors Binding
Receptors binding experiments were performed as follow. That is, the extract of rat muscle containing 600-900 μg of protein was added to test tubes containing test compounds and incubated for 15 minutes at 37° C. Then, to this mixture was added 1 nM of [^3H]-α-bungarotoxin (α-Bgt) and further incubated for 2 hours. The samples were isolated by vacuum filtration onto Whatman GF/B filters, which were prerinsed with 0.5% polyethylenimine just prior to sample filtration, using Brandel multi manifold cell harvester. The filters were rapidly rinsed with washing solution (10 mM of KH2PO4, 150 mM of NaCl, pH 7.2, room temperature) (5×1 ml). The filters were counted in 3 ml of clearsol I (Nacalai Tesque Inc.). Determination of nonspecific binding was incubated in the presence of 1 μM α-Bgt.
In the receptor binding experiments, said buffer solution was added for adjusting the final concentration of BSA to be 0.05%.
Analyses of the experimental results were conducted by the same way as described in the Biological Experiment 1.

[2] = target: T2, α4β2 subtype of nicotinic acetylcholine receptors (Rattus norvegicus, UniProt P09483+P12390); experiment: Binding assays at α4β2 subtype of nicotinic acetylcholine receptors ([3H]-cytisine, rat brain membrane)
T2 construct: examined using rat brain membrane obtained from whole homogenized brain; from tissue; host or cells: whole brain of Fischer-344 male rats, membrane pellet
T2 sequence (P09483 31-630): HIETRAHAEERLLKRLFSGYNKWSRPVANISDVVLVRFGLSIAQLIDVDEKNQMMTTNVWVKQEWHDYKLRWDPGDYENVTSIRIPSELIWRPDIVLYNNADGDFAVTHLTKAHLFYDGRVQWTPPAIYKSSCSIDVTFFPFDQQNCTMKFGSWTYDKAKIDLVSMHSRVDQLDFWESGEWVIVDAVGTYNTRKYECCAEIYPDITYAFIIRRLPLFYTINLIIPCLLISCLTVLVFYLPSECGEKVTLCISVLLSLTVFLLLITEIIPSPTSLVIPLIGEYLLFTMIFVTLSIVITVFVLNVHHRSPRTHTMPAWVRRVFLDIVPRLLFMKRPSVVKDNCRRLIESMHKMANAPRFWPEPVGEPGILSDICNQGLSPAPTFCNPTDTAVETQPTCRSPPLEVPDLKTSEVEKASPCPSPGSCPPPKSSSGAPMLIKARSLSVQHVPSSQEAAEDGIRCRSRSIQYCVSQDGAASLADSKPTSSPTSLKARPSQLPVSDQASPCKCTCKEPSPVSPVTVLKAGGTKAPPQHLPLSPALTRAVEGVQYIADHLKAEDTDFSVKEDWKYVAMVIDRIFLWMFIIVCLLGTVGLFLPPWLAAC
T2 sequence (P12390 25-500): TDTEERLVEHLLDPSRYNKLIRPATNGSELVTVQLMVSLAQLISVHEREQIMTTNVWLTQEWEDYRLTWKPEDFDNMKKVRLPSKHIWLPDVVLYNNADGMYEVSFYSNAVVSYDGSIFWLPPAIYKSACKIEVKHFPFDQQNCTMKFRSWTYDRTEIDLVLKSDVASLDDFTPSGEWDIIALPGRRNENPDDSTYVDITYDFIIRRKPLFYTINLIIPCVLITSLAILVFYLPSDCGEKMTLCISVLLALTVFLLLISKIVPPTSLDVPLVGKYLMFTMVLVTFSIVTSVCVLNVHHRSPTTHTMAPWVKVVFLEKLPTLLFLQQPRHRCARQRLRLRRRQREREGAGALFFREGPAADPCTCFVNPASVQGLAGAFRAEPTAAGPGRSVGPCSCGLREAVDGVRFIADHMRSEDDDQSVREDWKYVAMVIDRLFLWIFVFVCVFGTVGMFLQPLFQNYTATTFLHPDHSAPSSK
Excerpt: as §1
Binding assays at α4β2 Subtype of Nicotinic Acetylcholine Receptors
(1) Preparation of Rat Brain Membrane Containing α4β2 Subtype of Nicotinic Acetylcholine Receptors
Rats were housed in the breeding cage controlled of the room temperature at 23±1° C., and the humidity of 55±5% for 1 to 4 weeks. Rats (3 to 4 rats per a cage) were housed with lights on for 12 hours daily (from 7:00 to 19:00), and allowed free access to food and water.
Preparation of rat brain membrane containing α4β2 subtype of nicotinic acetylcholine receptors was performed as follow. That is, rat brains were isolated just after sacrificed by decapitation, washed with ice-cooled saline solution and then frozen at −80° C. with liquid nitrogen and stored till using. After thawing the frozen brain, the brain was homogenized in 10 volumes of ice-cooled buffer solution (50 mM of Tris-HCl, 120 mM of NaCl, 5 mM of KCl, 1 mM of MgCl2, 2mM of CaCl2; pH 7.4; 4° C.) using homogenizer (HG30, Hitachi Kohki Ltd.) for 30 seconds, and the homogenate were centrifuged under 1,000×G for 10 minutes at 4° C. The resulting supernatant was separated and the pellet was homogenized again with half volume of aforementioned prior buffer solution and centrifuged under the same conditions. Combined supernatant was further centrifuged under 40,000×G for 20 minutes at 4° C. The pellet was suspended in buffer solution and used for binding assays at receptors.
(2) Experiments of α4β2 Subtype of Nicotinic Acetylcholine Receptors Binding
Suspensions of membrane pellets containing 400-600 μg of protein were added to test tubes containing test compounds and [^3H]-cytisine (2 nM) in a final volume of 200 μl and incubated for 75 minutes in ice-cooled bath. The samples were isolated by vacuum filtration onto Whatman GF/B filters, which were prerinsed with 0.5% polyethylenimine just prior to sample filtration, using Brandel multi manifold cell harvester. The filters were rapidly washed with buffer solution (3×1 ml). The filters were counted in 3 ml of clearsol I (Nacalai Tesque Inc.).
Analyses of the experimental results were conducted using the Accufit Competition Program (Beckman Ltd.).

[3] = rat brain membrane, [3H]-cytisine (2 nM), read-out: Affinities for receptors Ki α4β2

CN1CCCC1c1cccnc1 (single isomer, unassigned; (-)) [Nicotine, (−)-nicotine, reference compound]
Ki [1]: 182000 nM

Cc1csc(=N)n1Cc1ccc(Cl)nc1 [Compound 2, 3-(6-chloro-3-pyridyl)methyl-2-imino-4-methyl-2,3-dihydrothiazole]
Ki [1]: 12800 nM
Ki [2]: 3.5 nM

Cc1cn(Cc2ccc(Cl)nc2)c(=N)s1 [Compound 3, 3-(6-chloro-3-pyridyl)methyl-2-imino-5-methyl-2,3-dihydrothiazole]
remaining activity at 100 µM [1]: 69%
remaining activity at 1000 µM [1]: 28%
Ki [2]: 5.8 nM

N=C1SCCN1Cc1cccnc1 [Compound 4, 2-imino-3-(3-pyridyl)methylthiazolidine]
remaining activity at 100 µM [1]: 6%
remaining activity at 1000 µM [1]: 1%
Ki [2]: 7.5 nM

N=c1ncccn1Cc1ccc(Cl)nc1 [Compound 10, 1-(6-chloro-3-pyridyl)methyl-2-imino-1,2-dihydropyrimidine]
Ki [1]: 347000 nM
Ki [2]: 8.7 nM

N=C1CCCCN1Cc1ccc(Cl)nc1 [Compound 15, 1-(6-chloro-3-pyridyl)methyl-2-iminopiperidine]
remaining activity at 100 µM [1]: 21%
remaining activity at 1000 µM [1]: 4%
Ki [2, 3]: 4.8 nM

N=C1SCCCN1Cc1ccc(Cl)nc1 [Compound 17, 3-(6-chloro-3-pyridyl)methyl-2-imino-3,4,5,6-tetrahydro-2H-1,3-thiazine]
remaining activity at 100 µM [1]: 68%
remaining activity at 1000 µM [1]: 23%
Ki [2, 3]: 520 nM

Cc1csc(=N)n1Cc1ccc(F)nc1 [Compound 18, 3-(6-fluoro-3-pyridyl)methyl-2-imino-4-methyl-2,3-dihydrothiazole]
Ki [1]: 5800 nM
Ki [2]: 10.8 nM

Cc1sc(=N)n(Cc2ccc(Cl)nc2)c1C [Compound 20, 3-(6-chloro-3-pyridyl)methyl-2-imino-4,5-dimethyl-2,3-dihydrothiazole]
remaining activity at 100 µM [1]: 96%
remaining activity at 1000 µM [1]: 45%
Ki [2]: 7.56 nM

CCc1csc(=N)n1Cc1ccc(Cl)nc1 [Compound 21, 3-(6-chloro-3-pyridyl)methyl-4-ethyl-2-imino-2,3-dihydrothiazole]
remaining activity at 100 µM [1]: 57%
remaining activity at 1000 µM [1]: 19%
Ki [2]: 21.7 nM

N=c1ccc(Cl)cn1Cc1ccc(Cl)nc1 [Compound 22, 5-chloro-1-(6-chloro-3-pyridyl)methyl-2-imino-1,2-dihydropyridine]
remaining activity at 100 µM [1]: 75%
remaining activity at 1000 µM [1]: 28%
Ki [2]: 33.7 nM

Cc1cccn(Cc2ccc(Cl)nc2)c1=N [Compound 23, 1-(6-chloro-3-pyridyl)methyl-2-imino-3-methyl-1,2-dihydropyridine]
remaining activity at 100 µM [1]: 89%
remaining activity at 1000 µM [1]: 52%
Ki [2]: 221 nM

Cc1ccc(=N)n(Cc2ccc(Cl)nc2)c1 [Compound 24, 1-(6-chloro-3-pyridyl)methyl-2-imino-5-methyl-1,2-dihydropyridine]
remaining activity at 100 µM [1]: 80%
remaining activity at 1000 µM [1]: 36%
Ki [2]: 48.6 nM

Cc1ccn(Cc2ccc(Cl)nc2)c(=N)c1 [Compound 25, 1-(6-chloro-3-pyridyl)methyl-2-imino-4-methyl-1,2-dihydropyridine]
remaining activity at 100 µM [1]: 90%
remaining activity at 1000 µM [1]: 58%
Ki [2]: 171 nM

N=c1ccccn1Cc1cccnc1 [Compound 26, 2-imino-1-(3-pyridyl)methyl-1,2-dihydropyridine]
Ki [1]: 41600 nM
Ki [2]: 28.2 nM

CC1CSC(=N)N1Cc1ccc(Cl)nc1 (centres unmarked) [Compound 27, 3-(6-chloro-3-pyridyl)methyl-2-imino-4-methylthiazolidine]
Ki [1]: 16300 nM
Ki [2]: 53.1 nM

Cc1csc(=N)n1Cc1cncc(Br)c1 [Compound 30, 3-(5-bromo-3-pyridyl)methyl-2-imino-4-methyl-2,3-dihydrothiazole]
Ki [1]: 22500 nM
Ki [2]: 26.7 nM

Cc1ccc(CN2CCSC2=N)cn1 [Compound 32, 2-imino-3-(6-methyl-3-pyridyl)methylthiazolidine]
Ki [1]: 14600 nM
Ki [2]: 10 nM

Cc1cc(CN2CCSC2=N)on1 [Compound 35, 2-imino-3-(3-methyl-5-isoxazolyl)methylthiazolidine]
remaining activity at 100 µM [1]: 12%
remaining activity at 1000 µM [1]: -3%
Ki [2]: 41 nM

Cc1cc(Cn2c(C)csc2=N)on1 [Compound 36, 2-imino-4-methyl-3-(3-methyl-5-isoxazolyl)methyl-2,3-dihydrothiazole]
remaining activity at 100 µM [1]: 10%
remaining activity at 1000 µM [1]: 2%
Ki [2]: 263 nM

Cc1csc(=N)n1Cc1cnc(Cl)s1 [Compound 37, 3-(2-chloro-5-thiazolyl)methyl-2-imino-4-methyl-2,3-dihydrothiazole]
Ki [1]: 22900 nM
Ki [2]: 16.4 nM

Cc1csc(=N)n1Cc1cnc(Cl)c(Cl)c1 [Compound 38, 3-(5,6-dichloro-3-pyridyl)methyl-2-imino-4-methyl-2,3-dihydrothiazole]
Ki [1]: 65200 nM
Ki [2]: 10.6 nM

Cc1ccc(Cn2c(C)csc2=N)cn1 [Compound 39, 2-imino-4-methyl-3-(6-methyl-3-pyridyl)methyl-2,3-dihydrothiazole]
Ki [1]: 10800 nM
Ki [2]: 30.5 nM

N=c1sc(-c2ccccc2)cn1Cc1ccc(Cl)nc1 [Compound 40, 3-(6-chloro-3-pyridyl)methyl-2-imino-5-phenyl-2,3-dihydrothiazole]
remaining activity at 100 µM [1]: 71%
remaining activity at 1000 µM [1]: 35%
Ki [2]: 355 nM

N=c1scc(-c2ccccc2)n1Cc1ccc(Cl)nc1 [Compound 41, 3-(6-chloro-3-pyridyl)methyl-2-imino-4-phenyl-2,3-dihydrothiazole]
remaining activity at 100 µM [1]: 79%
remaining activity at 1000 µM [1]: 30%
Ki [2]: 32 nM

N=c1scc(-c2ccc(Cl)cc2)n1Cc1ccc(Cl)nc1 [Compound 42, 4-(4-chlorophenyl)-3-(6-chloro-3-pyridyl)methyl-2-imino-2,3-dihydrothiazole]
remaining activity at 100 µM [1]: 75%
remaining activity at 1000 µM [1]: 35%
Ki [2]: 290 nM

N=C1SCC(c2ccccc2)N1Cc1ccc(Cl)nc1 (centres unmarked) [Compound 43, 3-(6-chloro-3-pyridyl)methyl-2-imino-4-phenylthiazolidine]
Ki [1]: 19900 nM
Ki [2]: 37.1 nM

N=c1ccc(-c2ccccc2)nn1Cc1cccnc1 [Compound 45, 3-imino-6-phenyl-2-(3-pyridyl)methyl-2,3-dihydropyridazine]
remaining activity at 100 µM [1]: 18%
remaining activity at 1000 µM [1]: 6%
Ki [2]: 143 nM
